Measurements taken from PubChem BioAssay AID328 (DTP/NCI, 2004).
Values joined by “and” are separate entries in the source; they are usually repeats but may differ in a detail not shown here. Equal values may be shown once. Inconclusive results and toxic doses are left out.

Tested on: BDF1 mice, P388 leukemia ip, median survival T/C
Test: NCI In Vivo Anticancer Drug Screen. Data for tumor model P388 Leukemia (intraperitoneal) in B6D2F1 (BDF1) mice
Settings: endpoint: median survival time, higher = longer survival
Summary of the method: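 Each value expresses how treatment altered survival: treated-mouse outcome over vehicle-mouse outcome, both groups bearing the transplanted tumour.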

[1] = dose: 400.0 mg/kg/injection, schedule: Q04DX003 (ip), vehicle: saline with Tween-80
[2] = dose: 100.0 mg/kg/injection, schedule: Q01DX009 (ip), vehicle: saline
[3] = dose: 100.0 mg/kg/injection, schedule: Q01DX009 (ip), vehicle: saline with Tween-80
[4] = dose: 100.0 mg/kg/injection, schedule: Q04DX003 (ip), vehicle: saline with Tween-80
[5] = dose: 200.0 mg/kg/injection, schedule: Q01DX009 (ip), vehicle: saline with Tween-80
[6] = dose: 200.0 mg/kg/injection, schedule: Q04DX003 (ip), vehicle: saline with Tween-80
[7] = dose: 50.0 mg/kg/injection, schedule: Q01DX009 (ip), vehicle: saline with Tween-80

Question: What does the source list for `O/C(=C/C(=S)S)c1ccco1`?
Answer: T/C (dose: 25.0 mg/kg/injection, schedule: Q01DX009 (ip), vehicle: water): 93 % of control; T/C (dose: 25.0 mg/kg/injection, schedule: Q04DX003 (ip), vehicle: water): 94 % of control; T/C (dose: 50.0 mg/kg/injection, schedule: Q01DX009 (ip), vehicle: water): 91 % of control; T/C (dose: 50.0 mg/kg/injection, schedule: Q04DX003 (ip), vehicle: water): 93 % of control; T/C (dose: 100.0 mg/kg/injection, schedule: Q01DX009 (ip), vehicle: water): 92 % of control; T/C (dose: 200.0 mg/kg/injection, schedule: Q01DX009 (ip), vehicle: water): 102 % of control; T/C (dose: 200.0 mg/kg/injection, schedule: Q04DX003 (ip), vehicle: water): 93 % of control; T/C (dose: 400.0 mg/kg/injection, schedule: Q01DX009 (ip), vehicle: water): 93 % of control; T/C (dose: 400.0 mg/kg/injection, schedule: Q04DX003 (ip), vehicle: water): 97 % of control

Question: How did the T/C (dose: 50.0 mg/kg/injection, schedule: Q01DX009 (ip), vehicle: Klucel (hydroxypropylcellulose) (HPC)) turn out when `O=NN(CCCl)C(=O)Nc1cc2c3ccccc3ccc2c2ccccc12` was run?
Answer: 121 % of control

Question: Which results are given for `N=c1ccn2c(n1)OC1C(OP(=O)(O)O)C(CO)OC12` (stereo not given)?
Answer: T/C (dose: 52.0 mg/kg/injection, schedule: Q04DX003 (ip), vehicle: saline): 109 % of control; T/C (dose: 118.0 mg/kg/injection, schedule: Q04DX003 (ip), vehicle: saline): 159 % of control; T/C (dose: 177.0 mg/kg/injection, schedule: Q04DX003 (ip), vehicle: saline): 172 % of control and 185 % of control; T/C (dose: 266.0 mg/kg/injection, schedule: Q04DX003 (ip), vehicle: saline with Tween-80): 172 % of control; T/C (dose: 266.0 mg/kg/injection, schedule: Q04DX003 (ip), vehicle: saline): 205 % of control; T/C [1]: 181 % of control; T/C (dose: 400.0 mg/kg/injection, schedule: Q04DX003 (ip), vehicle: saline): 200 % of control; T/C (dose: 600.0 mg/kg/injection, schedule: Q04DX003 (ip), vehicle: saline with Tween-80): 200 % of control; T/C (dose: 600.0 mg/kg/injection, schedule: Q04DX003 (ip), vehicle: saline): 230 % of control

Question: How did the T/C (dose: 50.0 mg/kg/injection, schedule: Q01DX001 (ip), vehicle: saline with Tween-80) turn out when `COC1CCC(C=O)C(C#N)(C#N)C1(C#N)C#N` (stereo not given) was run?
Answer: 112 % of control

Question: And the T/C (dose: 100.0 mg/kg/injection, schedule: Q01DX001 (ip), vehicle: saline with Tween-80)?
Answer: 100 % of control

Question: For `CC(CC#N)NC(=O)C1CCC(N)=N1` (stereo not given), which T/C [2] is on record?
Answer: 111 % of control

Question: And the T/C (dose: 400.0 mg/kg/injection, schedule: Q01DX009 (ip), vehicle: saline)?
Answer: 103 % of control

Question: With `COc1cc(/C=N/NC(N)=S)cc(OC)c1OC` as the compound, how does the T/C [3] read?
Answer: 104 % of control

Question: And the T/C [4]?
Answer: 90 % of control

Question: What about the T/C [5] of the same compound?
Answer: 104 % of control

Question: And the T/C [6]?
Answer: 109 % of control

Question: What about the T/C (dose: 400.0 mg/kg/injection, schedule: Q01DX009 (ip), vehicle: saline with Tween-80) of the same compound?
Answer: 100 % of control

Question: What about the T/C [1] of the same compound?
Answer: 104 % of control

Question: What does the source list for `CCc1nc2nc(C)cc(C)n2n1`?
Answer: T/C (dose: 12.5 mg/kg/injection, schedule: Q01DX009 (ip), vehicle: saline): 91 % of control; T/C (dose: 25.0 mg/kg/injection, schedule: Q01DX009 (ip), vehicle: saline): 89 % of control; T/C (dose: 50.0 mg/kg/injection, schedule: Q01DX009 (ip), vehicle: saline): 97 % of control and 120 % of control; T/C [2]: 86 % of control and 91 % of control; T/C (dose: 200.0 mg/kg/injection, schedule: Q01DX009 (ip), vehicle: saline): 104 % of control

Question: `C[C@]12C=CC(=O)C=C1CC[C@@H]1[C@@H]2CC[C@]2(C)OC(=O)CC[C@@H]12` was tested. Which T/C [7] did it give?
Answer: 100 % of control

Question: And the T/C [3]?
Answer: 86 % of control

Question: And the T/C [4]?
Answer: 90 % of control

Question: And the T/C [5]?
Answer: 90 % of control

Question: And the T/C [6]?
Answer: 90 % of control

Question: With `COc1cccn(C/C=C(\C)CCC=C(C)C)c1=O` as the compound, how does the T/C (dose: 25.0 mg/kg/injection, schedule: Q01DX009 (ip), vehicle: saline with Tween-80) read?
Answer: 116 % of control

Question: What about the T/C [7] of the same compound?
Answer: 109 % of control

Question: And the T/C (dose: 50.0 mg/kg/injection, schedule: Q04DX003 (ip), vehicle: saline with Tween-80)?
Answer: 91 % of control

Question: What about the T/C (dose: 80.0 mg/kg/injection, schedule: Q01DX009 (ip), vehicle: saline with Tween-80) of the same compound?
Answer: 93 % of control

Question: What about the T/C [4] of the same compound?
Answer: 100 % of control

Question: And the T/C (dose: 150.0 mg/kg/injection, schedule: Q01DX009 (ip), vehicle: saline with Tween-80)?
Answer: 116 % of control
